Measured values published in ChEMBL document CHEMBL5518201, “Glycan-Modified Peptides for Dual Inhibition of Human Immunodeficiency Virus Entry into Dendritic Cells and T Cells” (J Med Chem, 2024).

Tested on: Human immunodeficiency virus 1
Assay: Antiviral activity against HIV-1 pseudovirus infected in HEK293T cells transfected with DC-SIGN assessed as inhibition of viral entry into cells at 500 uM preincubated with compound for 2 hrs followed by viral addition and measured after 4 hrs by p24 ELISA relative to control
Type: functional
Conditions: Human immunodeficiency virus 1, HEK-293T, time 6 hrs

**Q.** `[N-]=[N+]=NCCO[C@H]1O[C@H](CO[C@H]2O[C@H](CO)[C@@H](O)[C@H](O)[C@@H]2O[C@H]2O[C@H](CO)[C@@H](O)[C@H](O)[C@@H]2O)[C@@H](O)[C@H](O[C@H]2O[C@H](CO)[C@@H](O)[C@H](O)[C@@H]2O[C@H]2O[C@H](CO)[C@@H](O)[C@H](O)[C@@H]2O)[C@@H]1O` was tested. Which inhibition at 500 µM did it give?
**A.** The inhibition at 500 µM was 15%.
